# In US7510836B2, “Alpha arteether resistance domain” (priority 2003, dated 2009):
# Tests used:
# E. coli mutant CA80010 = assay: Minimum inhibitory concentration (cross resistance); type: cell-based; conditions: Escherichia coli, read-out: minimum inhibitory concentration (MIC)
# Excerpt: (§1) In order to develop an arteether resistant mutants from an arteether sensitive strains a reverse strategy was applied. Quinoline/fluoroquinolone (Q/FQs) resistant strains were developed spontaneously i.e. screening overnight log phase culture of the Quinolone/fluoroquinolone sensitive i.e. arteether resistant strain (E coli CA 8000) on the poison agar plate of the Q/FQs. The Q/FQ resistant mutants which appeared on the poison agar plates were first purified through single colony purification and then checked for their arteether sensitivity. These arteether sensitive mutants on the contrary when checked for their Q/Fqs resistance they show different level of Q/FQs resistance.
# (§2) The minimum inhibitory concentrations (MIC) of the quinolone and fluoroquinolone antibiotics were quantified for different strains and compared among each other. The differential response indicate the measure of resistance and sensitivity. Higher MIC indicate more resistance.
# E. coli mutant CA80012 = assay: as above; type: cell-based; conditions: Escherichia coli, read-out: minimum inhibitory concentration (MIC)
# Excerpt: as §1, §2
# E. coli mutant CA8007 = assay: as above; type: cell-based; conditions: Escherichia coli; strain CA8007
# Excerpt: as §1, §2
# E. coli mutant CA8001 = assay: as above; type: cell-based; conditions: Escherichia coli; strain CA8001
# Excerpt: as §1, §2
# E. coli mutant CA8003 = assay: as above; type: cell-based; conditions: Escherichia coli; strain CA8003
# Excerpt: as §1, §2
# E. coli mutant CA8009 = assay: as above; type: cell-based; conditions: Escherichia coli; strain CA8009
# Excerpt: as §1, §2
# E. coli mutant CA8005 = assay: as above; type: cell-based; conditions: Escherichia coli; strain CA8005
# Excerpt: as §1, §2
# E. coli mutant CA8006 = assay: as above; type: cell-based; conditions: Escherichia coli; strain CA8006
# Excerpt: as §1, §2
# E. coli mutant CA8002 = assay: as above; type: cell-based; conditions: Escherichia coli; strain CA8002
# Excerpt: as §1, §2
# E. coli NK5819 [1] = assay: as above; type: cell-based; conditions: Escherichia coli; strain NK5819
# Excerpt: as §2
# E. coli ET8000 [2] = assay: as above; type: cell-based; conditions: Escherichia coli; strain ET8000
# Excerpt: as §2
# E. coli DH5a = assay: as above; type: cell-based; conditions: Escherichia coli; strain DH5a
# Excerpt: as §2
# E. coli CA8000 = assay: as above; type: cell-based; conditions: Escherichia coli; strain CA8000
# Excerpt: as §2
# E. coli CA8012 = assay: Phenotype of strain (resistance or sensitivity); type: cell-based, Escherichia coli; parameters: key: R: resistance; S: sensitivity; conditions: gyrA GGT-GAT(242), Gly-Asp 81
# Excerpt: as §1
# (§3) The strains of E coli of the investigation, their phenotypes in terms of a-arteether (resistance or sensitivity, superscript R or S) or antibiotic resistance or sensitivity, change in nucleotide position of the gyrase A gene leading to the phenotype, corresponding amino acid change in the protein and the position of amino acid change are being described. Always the phenotype a-arteether resistance is accompanied with quinolone or fluoroquinolone sensitivity and vice versa.
# [3] = system: E. coli mutant strain Rev 5; assay: Phenotype of revertant (resistance or sensitivity); type: cell-based, Escherichia coli; parameters: key: R: resistance; S: sensitivity; conditions: gyrA GAT-GGT(242), Asp-Gly 81
# Excerpt: as §3
# (§4) The commercially available strain E. coli DH5[…] (Stratagene, USA) is sensitive to […]-arteether but resistant to quinolone/fluoroquinolone due to a mutation at 87th aminoacid position of the gyr A protein (Aspartic acid of wild type is changed to Aspargine) with corresponding change in the codon GAC to AAC. This strain was used to screen […]-arteether resistant mutations. The observation was startling as the […]-arteether resistant mutants are the exact reversion at the 87th position of the aminoacid of gyrase A subunit i.e. Aspargine changed to aspartic acid, with corresponding change in the codon AAC to GAC.
# [4] = system: E. coli mutant strain Rev. 1; assay: Phenotype of revertant (resistance or sensitivity); type: cell-based, Escherichia coli; parameters: key: R: resistance; S: sensitivity; conditions: gyrA GAT-GGT(242), Asp-Gly 81
# Excerpt: as §3, §4
# [5] = system: E. coli mutant strain Rev 4; assay: Phenotype of revertant (resistance or sensitivity); type: cell-based, Escherichia coli; parameters: key: R: resistance; S: sensitivity; conditions: gyrA GAT-GGT(242), Asp-Gly 81
# Excerpt: as §3, §4
# [6] = system: E. coli mutant strain Rev. 2; assay: Phenotype of revertant (resistance or sensitivity); type: cell-based, Escherichia coli; parameters: key: R: resistance; S: sensitivity; conditions: gyrA GAT-GGT(242), Asp-Gly 81
# Excerpt: as §3, §4
# [7] = system: E. coli mutant strain Rev. 3; assay: Phenotype of revertant (resistance or sensitivity); type: cell-based, Escherichia coli; parameters: key: R: resistance; S: sensitivity; conditions: gyrA GAT-GGT(242), Asp-Gly 81
# Excerpt: as §3, §4
# [8] = system: E. coli mutant strain Rev 6; assay: Phenotype of revertant (resistance or sensitivity); type: cell-based, Escherichia coli; parameters: key: R: resistance; S: sensitivity; conditions: gyrA GAT-GGT(242), Asp-Gly 81
# Excerpt: as §3, §4
# E. coli NK5819 [9] = assay: Phenotype of strain (resistance or sensitivity); type: cell-based, Escherichia coli; parameters: key to Phenotype: R: resistance; S: sensitivity
# Procedure: (§5) To ascertain the involvement of gyrA mutation, another E.coli strain NK 5819 which is also GyrA″ and nalidixic acid resistant was tested for arteether sensitivity. As expected, strain NK5819 was also sensitive only to a-isomer of arteether. […] The assays for arteether sensitivity was performed by the standard single disk diffusion method (Bauer et al, 1966). As a next step, we isolated gyrA mutants of E.coli strain CA 8000, which is otherwise Gyr+ and nalidixic acid sensitive. The gyrA mutants of CA8000 were isolated as nalidixic acid resistant colonies (20 ug/ml), after mutagenic treatment with NTG ([…]). The isolated CA8000 gyrA mutants were also sensitive only to a isomer of arteether. […] To define precisely the involvement of gyr genes only in the a-arteether sensitivity, we utilised two recombinant clones (pMK 90 and pMK47 containing functional gyr A and gyrB genes respectively) in trans-complementation assays. For this purpose, we mobilized the plasmid clones into the E.coli gyr mutant strains. The resulting transformants were now nalidixic acid sensitive and a-arteether resistant. This constituted the direct evidence supporting our observation that DNA gyrase enzyme alone is involved in conferring a-arteether sensitivity to E.coli strain. […] DNA gyrase enzyme is essential for the bacterial growth. This enzyme transiently breaks the DNA strands and introduces negative superhelical turns in an ATP-dependent process. The E.coli DNA gyrase enzyme is a tetramer with two subunits A and B. These two subunits are nalidixic acid and coumermycin sensitive respectively (U.S. Pat. No. 6,127,405 and a co-pending patent).
# as §3
# E. coli CA8009 = assay: Phenotype of strain (resistance or sensitivity); type: cell-based, Escherichia coli; parameters: key: R: resistance; S: sensitivity; conditions: gyrA TCG-TTG(248), Ser-Leu 83
# Excerpt: as §1, §3
# E. coli CA8001 = assay: Phenotype of strain (resistance or sensitivity); type: cell-based, Escherichia coli; parameters: key: R: resistance; S: sensitivity; conditions: gyrA GGT-TGT(241), Gly-Cys 81
# Excerpt: as §1, §3
# E. coli CA8002 = assay: Phenotype of strain (resistance or sensitivity); type: cell-based, Escherichia coli; parameters: key: R: resistance; S: sensitivity; conditions: gyrA GGT-TGT(241), Gly-Cys 81
# Excerpt: as §1, §3
# E. coli CA8010 = assay: Phenotype of strain (resistance or sensitivity); type: cell-based, Escherichia coli; parameters: key: R: resistance; S: sensitivity; conditions: gyrA TCG-TTG(248), Ser-Leu 83
# Excerpt: as §1, §3
# E. coli CA8006 = assay: Phenotype of strain (resistance or sensitivity); type: cell-based, Escherichia coli; parameters: key: R: resistance; S: sensitivity; conditions: gyrA TCG-TTG(248), Ser-Leu 83
# Excerpt: as §1, §3
# E. coli CA8003 = assay: Phenotype of strain (resistance or sensitivity); type: cell-based, Escherichia coli; parameters: key: R: resistance; S: sensitivity; conditions: gyrA GAC-GGC(260), Asp-Gly 87
# Excerpt: as §1, §3
# E. coli CA8005 = assay: Phenotype of strain (resistance or sensitivity); type: cell-based, Escherichia coli; parameters: key: R: resistance; S: sensitivity; conditions: gyrA GAC-GGC(260), Asp-Gly 87
# Excerpt: as §1, §3
# E. coli CA8007 = assay: Phenotype of strain (resistance or sensitivity); type: cell-based, Escherichia coli; parameters: key: R: resistance; S: sensitivity; conditions: gyrA TCG-TTG(248), Ser-Leu 83
# Excerpt: as §1, §3
# [10] = system: E. coli mutant strain AR 9 CA8014; assay: Phenotype of revertant (resistance or sensitivity); type: cell-based, Escherichia coli; parameters: key: R: resistance; S: sensitivity; conditions: gyrA AAC-GAC(259), Asn-Asp 87
# Excerpt: as §3, §4
# [11] = system: E.coli gyr mutant strains transformed with pMK 90 and pMK47 (functional gyr A and gyrB genes); assay: Trans-complementation assay; type: cell-based, Escherichia coli; conditions: gyr mutant strains carrying pMK 90 / pMK47
# Procedure: as §5, with “This enzyme transiently breaks the DNA strands and introduces negative superhelical turns in an ATP-dependent process. The E.coli DNA gyrase enzyme is a tetramer with two subunits A and B. These two subunits are nalidixic acid and coumermycin sensitive respectively (U.S. Pat. No. 6,127,405 and a co-pending patent).” left out
# [12] = system: E.coli strain CA 8000 (Gyr+); assay: Phenotype of strain (resistance or sensitivity); type: cell-based, Escherichia coli; conditions: E.coli CA 8000 (Gyr+)
# Procedure: as §5, with “This enzyme transiently breaks the DNA strands and introduces negative superhelical turns in an ATP-dependent process. The E.coli DNA gyrase enzyme is a tetramer with two subunits A and B. These two subunits are nalidixic acid and coumermycin sensitive respectively (U.S. Pat. No. 6,127,405 and a co-pending patent).” left out
# E. coli ET8000 [13] = assay: Phenotype of strain (resistance or sensitivity); type: cell-based, Escherichia coli; parameters: key: R: resistance; S: sensitivity; conditions: gyrA GAC-AAC(259), Asp-Asn 87
# Excerpt: as §3
# E. coli DH5α = assay: Phenotype of strain (resistance or sensitivity); type: cell-based, Escherichia coli; parameters: key to Phenotype: R: resistance; S: sensitivity
# Procedure: As a result of this mutation, the said strain is also resistant to a drug called nalidixic acid.
# as §5, §3
# malaria = conditions: antimalarial; cited from earlier work
SMILES,MIC (E. coli mutant CA80010) [µg/mL],MIC (E. coli mutant CA80012) [µg/mL],MIC (E. coli mutant CA8007) [µg/mL],MIC (E. coli mutant CA8001) [µg/mL],MIC (E. coli mutant CA8003) [µg/mL],MIC (E. coli mutant CA8009) [µg/mL],MIC (E. coli mutant CA8005) [µg/mL],MIC (E. coli mutant CA8006) [µg/mL],MIC (E. coli mutant CA8002) [µg/mL],MIC (E. coli NK5819 [1]) [µg/mL],MIC (E. coli ET8000 [2]) [µg/mL],MIC (E. coli DH5a) [µg/mL],MIC (E. coli CA8000) [µg/mL],Sensitivity or resistance of the strain (words) [12],further results
O=C(O)c1cn(C2CC2)c2cc(N3CCNCC3)c(F)cc2c1=O [Ciprofloxacin],0.1,0.1,0.1,< 0.1,< 0.1,0.1,0.1,0.1,< 0.1,< 0.1,0.5,0.1,< 0.05,,
CCn1cc(C(=O)O)c(=O)c2cc(F)c(N3CCNC(C)C3)c(F)c21 (stereo not drawn) [Lomefloxacin],1.5,1.5,1.5,1.5,2.5,1.5,0.5,1.5,1.5,< 0.5,> 2,0.5,< 0.05,,Phenotype (E. coli CA8012): R; Phenotype [3]: S; Phenotype [4]: S; Phenotype [5]: S; Phenotype [6]: S; Phenotype [7]: S; Phenotype [8]: S
CCn1cc(C(=O)O)c(=O)c2ccc(C)nc21 [Nalidixic acid],100,100,100,150,150,100,150,150,150,20,100,50,2,sensitive,"Sensitivity or resistance of the strain (words) (E. coli NK5819 [9]; E.coli NK 5819 (GyrA mutant)): resistant; Phenotype (E. coli NK5819 [9]; NK5819, gyrA GAC-TAC(259), Asp-Gly 87): R; Phenotype (E. coli CA8009): R; Phenotype (E. coli CA8001): R; Phenotype (E. coli CA8002): R; Phenotype (E. coli CA8010): R; Phenotype (E. coli CA8006): R; Phenotype (E. coli CA8003): R; Phenotype (E. coli CA8005): R; Phenotype (E. coli CA8007): R; Phenotype [10]: S; Sensitivity or resistance of transformants [11]: sensitive; Phenotype (E. coli ET8000 [13]): R; Phenotype (E. coli DH5α; DH5α, gyrA GAC-AAC(259), Asp-Asn 87): R; Sensitivity or resistance of the strain (words) (E. coli DH5α; E.coli DH5a (gyrA 96; Asp87Asn)): resistant"
CCn1cc(C(=O)O)c(=O)c2cc(F)c(N3CCNCC3)cc21 [Norfloxacin],15,15,15,15,15,15,10,20,15,25,50,20,< 0.05,,
C[C@@H]1CN(c2c(F)c(N)c3c(=O)c(C(=O)O)cn(C4CC4)c3c2F)C[C@H](C)N1 [Sparfloxacin],40,40,20,20,20,40,20,40,20,10,20,10,< 0.05,,
"CCO[C@H]1O[C@@H]2O[C@@]3(C)CC[C@H]4[C@H](C)CC[C@@H]([C@H]1C)[C@@]24OO3 [arteethers, arteether]",,,,,,,,,,,,,,resistant,Potency relative to artemisinin (malaria): 2-3 times
